From US8940909B2, “Indicator platform” (Biosynth AG, priority 2009, dated 2015)
Entries after “also recorded” stand apart in the source; their conditions may differ.

Columns and labels:
[1] = Water solubility and fluorescence of IO dyes from ester indicators; assay type: physicochemical; details: above pH 5
Description: Upon further acidification said dyes formed orange colored non-fluorescent precipitates from aqueous solutions. […] Evidently, said dyes are highly acidic in nature and highly fluorescent in deprotonated form.

Eschericha coli (NM1) = assay: MDAB staining of bacterial colonies with indicators I9a, I10a, I11a, I12a on Nutrient Agar, aerobic; assay type: cell-based; details: for colonial morphology, aerobic conditions: Escherichia coli (b-gal +), aR MDAB, equivalents 1:1, after 48 h of incubation; for Effectiveness of indicator system with MDAB under aerobic conditions: in combination with MDAB
Experimental: (§1) Indicators were tested with live cultures on Nutrient Agar plates. Nutrient Agar (5 g/l peptone, 5 g/l NaCl, 2 g/l yeast extract, 1 g/l beef extract, 13 g/l agar, pH 7.4) was autoclaved and allowed to cool to 50° C. Then substrates were added to final concentrations of 150 mg/l (from a 20 mg/ml stock solution in DMF). Optionally MDAB was added to a concentration of 1 mM (from a 200 mM stock solution in DMF) and plates were poured. Agar plates were inoculated with cultures of Eschericha coli (NM1) or Salmonella enteritidis (RKI 05/07992) (pre-grown on nutrient broth for 8-18 hours) and aerobically incubated at 37° C.

[2] = system: Salmonella enteritidis (RKI 05/07992); assay: as above; assay type: cell-based; details: Salmonella enteritidis (b-gal −); aR MDAB, equivalents 1:1; after 48 h of incubation
Experimental: as §1

[3] = system: beta-galactosidase positive Eschericha coli (NM1); assay: IO staining of bacterial colonies on Nutrient Agar (color, fluorescence, localization, growth); as to C: Color of colonies (strength): key: −: absent; +/−: weak; +: strong; ++: very strong; as to F: Fluorescence of colonies (strength): key: −: absent; +/−: weak; +: strong; ++: very strong; as to G: Growth of colonies: key: −: absent; +/−: weak; +: strong; ++: very strong; as to L: Localization of stain on colonies: key: −: absent; +/−: weak; +: strong; ++: very strong; assay type: cell-based, E. coli; details: 150 mg/l substrate and 100 mg/l IPTG; for F: Fluorescence of colonies (colour) / G: Growth of colonies / L: Localization of stain on colonies / F: Fluorescence of colonies (strength): 24 h; for F: Fluorescence of colonies (colour) / F: Fluorescence of colonies (strength): 366 nm UV; for C: Color of colonies (colour of stain) / C: Color of colonies (strength): 24 h on Nutrient Agar; for G: Growth of colonies / L: Localization of stain on colonies / F: Fluorescence of colonies (strength) / C: Color of colonies (strength): E. coli
Experimental: (§2) Nutrient Agar (5 g/l peptone, 5 g/l NaCl, 2 g/l yeast extract, 1 g/l beef extract, 13 g/l agar, pH 7.4) was autoclaved and allowed to cool to 50° C. Then indicators were added to final concentrations of 150 mg/l (from a 20 mg/ml stock solution in DMF).
(§3) Optionally IPTG was added to 100 mg/l (from a 100 mg/ml stock solution in H2O) and plates were poured. Agar plates were inoculated with cultures of beta-galactosidase positive Eschericha coli (NM1) or beta-galactosidase negative Salmonella enteritidis (RKI 05/07992) (pre-grown on nutrient broth for 8-18 hours) and incubated at 37° C. Plates were inspected at 16, 20, 24 and 48 hours and pictures were recorded at 18, 24, and 48 hours with a Digistore 2 Image documentation system (CAMAG) under white light.
(§4) A considerable number of indicators molecules (Table IVa, IVb) and a selection of labile groups (Table IVc) were tested with various microbial species producing different biomarker enzymes (external stimuli, eS). The color of stains ranges from yellow to red.
(§5) Plating media from Example 10 were examined under 366 nm UV irradiation at 16, 20, 24 and 48 hours for fluorescence by means of Digistore 2 Image documentation system (CAMAG). Loops of bacterial cells, grown for 48 hours on Nutrient Agar plates containing 150 mg/l beta-D-galactosidase indicator and 100 mg/l IPTG, were directly streaked into wells of black clear bottom microtiter plates. Fluorescence scans were recorded on a Spectramax M5 (Molecular Devices).

[4] = system: beta-galactosidase negative Salmonella enteritidis (RKI 05/07992); assay type: cell-based; details: S. enteritidis (b-gal negative), 24 h, 150 mg/l substrate and 100 mg/l IPTG; for F: Fluorescence of colonies (strength): 366 nm UV; as to all read-outs here: key: −: absent; +/−: weak; +: strong; ++: very strong
Experimental: as §2, §3, §4, §5

Candida albicans = assay: IO staining of fungal colonies; assay type: cell-based; as to growth: key: −: absent; +/−: weak/variable; +: strong
Experimental: (§6) Agar base (6 g/l soytone, 1.5 g/l yeast extract, 1 g/l glucose, 10 mM sodium phosphate buffer, 13 g/l agar, pH 7.0) was autoclaved and allowed to cool to 50° C. Then 1 mM MnSO4, 1 g/l N-Acetyl-D-galactosamine and: 1-(2-benzoylphenyl)-6-chloro-1H-indol-3-yl-N-acetyl-beta-D-galactosaminide (I21g) were added to final concentrations of 0.64 mM (from a 50 mM stock solution in DMF) and plates poured. Plates were inoculated with Candida albicans, Candida krusei and Saccharomyces cerevisiae and incubated at 37° C. for 48 hours.

Candida krusei = assay: IO staining of fungal colonies; assay type: cell-based; details: Candida krusei strain 305, galactosamidase −; agar plates containing indicator; as to growth: key: −: absent; +/−: weak/variable; +: strong
Experimental: as §6

Saccharomyces cerevisiae = assay: IO staining of fungal colonies; assay type: cell-based; details: Saccharomyces cerevisiae strain 306, galactosamidase −; agar plates containing indicator; as to growth: key: −: absent; +/−: weak/variable; +: strong
Experimental: as §6

pig liver esterase = assay: Indication of carbamate hydrolysis by esterase; assay type: biochemical; details: prolonged exposure to pig liver esterase
[5] = Indication of carbamate hydrolysis by alkali; details: short treatment with 1N aqueous NaOH solution
[6] = Indication of disulfide reduction by TCEP
[7] = Reaction of MDAB with active signalogens (aldol donor properties); details: presence of MDAB, absence of oxygen
[8] = Candida albicans strain 304, galactosamidase +, agar plates containing indicator

SMILES | Effectiveness of indicator system with MDAB under aerobic conditions (Eschericha coli (NM1)) | colonial morphology, aerobic conditions [2] | F: Fluorescence of colonies (colour) [3] | C: Color of colonies (colour of stain) [3] | G: Growth of colonies [3] | L: Localization of stain on colonies [3] | F: Fluorescence of colonies (strength) [3] | C: Color of colonies (strength) [3] | C: Color of colonies (strength) [4] | F: Fluorescence of colonies (strength) [4] | also measured
O=C1c2ccccc2-n2c1c(O)c1ccccc12 [IO10, 11-Hydroxy-10H-indolo[1,2-a]indol-10-one] |  |  |  |  |  |  |  |  |  |  | Solubility in water [1]: freely soluble; also recorded: readily water-soluble
OC[C@H]1O[C@@H](Oc2cn(-c3ccccc3)c3cc(Cl)ccc23)[C@H](O)[C@@H](O)[C@H]1O [Indicator I9a, 6-Chloro-1-phenyl-1H-indol-3-yl-beta-D-galactopyranoside] | effective | Cream colored colonies |  |  |  |  |  |  |  |  | colonial morphology, aerobic conditions (Eschericha coli (NM1)): Red colored colonies
COC(=O)c1ccccc1-n1cc(O[C@@H]2O[C@H](CO)[C@H](O)[C@H](O)[C@H]2O)c2ccccc21 [Indicator I10a, 1-[2-(Methoxycarbonyl)phenyl]-1H-indol-3-yl-beta-D-galactopyranoside] | effective | Cream colored colonies | green | yellow-green | + | − | + | + | − | − | 
COC(=O)c1ccccc1-n1cc(O[C@@H]2O[C@H](CO)[C@H](O)[C@H](O)[C@H]2O)c2ccc(Cl)cc21 [Indicator I11a, 6-Chloro-1-[2-(methoxycarbonyl)phenyl]-1H-indol-3-yl-beta-D-galactopyranoside] | effective | Cream colored colonies | green | yellow-green | + | − | + | + | − | − | 
COC(=O)c1ccccc1-n1cc(O[C@@H]2O[C@H](CO)[C@H](O)[C@H](O)[C@H]2O)c2c(Cl)c(Br)ccc21 [Indicator I12a, 5-Bromo-4-chloro-1-[2-(methoxycarbonyl)phenyl]-1H-indol-3-yl-beta-D-galactopyranoside] | effective | Cream colored colonies | green | yellow-green | + | − | +/− | +/− | − | − | colonial morphology, aerobic conditions (Eschericha coli (NM1)): Brown colored colonies
CC(=O)N[C@H]1[C@H](Oc2cn(-c3ccccc3C(=O)c3ccccc3)c3cc(Cl)ccc23)O[C@H](CO)[C@H](O)[C@@H]1O [Indicator I21g, 1-(2-Benzoylphenyl)-6-chloro-1H-indol-3-yl-N-acetyl-beta-D-galactosaminide] |  |  |  |  |  |  |  |  |  |  | Color (Candida albicans; [8]): Yellow; Growth (Candida albicans; [8]): +/−; Color of fungal colonies producing matching external stimulus (Candida albicans; D-galactosamidase biomarker of Candida albicans): bright yellow; Color (Candida krusei): Cream; Growth (Candida krusei): +/−; Color (Saccharomyces cerevisiae): Cream; Growth (Saccharomyces cerevisiae): +/−
CCNC(=O)Oc1cn(-c2ccccc2C(=O)c2ccccc2)c2ccccc12 [Indicator I32, 1-(2-Benzoylphenyl)-1H-indol-3-yl ethyl carbamate] |  |  |  |  |  |  |  |  |  |  | Signal on carbamate hydrolysis by esterase (pig liver esterase): yellow precipitate; Signal on alkaline carbamate hydrolysis [5]: yellow precipitate
CC(=O)c1ccccc1-n1cc(SSc2cn(-c3ccccc3C(C)=O)c3ccccc23)c2ccccc21 [Indicator I33, Bis[1-(2-acetylphenyl)-1H-indol-3-yl]-disulfane] |  |  |  |  |  |  |  |  |  |  | Signal on disulfide reduction, alkaline conditions ([6]; alkaline conditions (1 N aqueous sodium hydroxide)): the solution turned yellow; Signal on disulfide reduction, neutral conditions ([6]; neutral conditions): no detectable signal
Sc1c[nH]c2ccccc12 [aS7, 1H-Indol-3-thiol] |  |  |  |  |  |  |  |  |  |  | Aldol product / color formed with MDAB [7]: the expected violet color appeared only under strongly acidic conditions; Aldol product / color formed with MDAB ([7]; listed as 3-mercaptoindole): did produce the characteristic pink dye (BI7) under strongly acidic conditions
